Columns and labels:
GABA receptors = test: in vitro assay for direct GABA activation; assay type: cell-based; settings: FIG. 2
Excerpt: Propofol and analogs are known to activate GABA receptors (see, e.g., Trapani et al., J. Med. Chem. 1998, 41, 1846-1854, incorporated herein by reference). While the relationship between GABA activation and anesthetic activity is not completely clear, it is believed that the ability of a compound to directly activate GABA receptors may be related to the anesthetic, sedative, and/or anxiolytic activity of the compound. Compounds of the invention can be tested in in vitro electrophysiological assays to determine the ability of the compound to activate GABA receptors.
Compound 1 was synthesized as described in Example 1. The compound was tested in an in vitro assay for direct GABA activation.

rats = test: i.v. injection into the lateral tail vein of rats, loss of righting reflex / anesthesia
Experimental: Compound 1 was formulated in 16% Cremophor EL solution in water at a concentration of approximately 15 mg/ml and tested in rats as follows.
Approximately 15 mg/kg of Compound 1 in the suspension were injected into the lateral tail vein of two rats (weight 330-340 g).

[1] = Rat 1, approximately 15 mg/kg i.v. (lateral tail vein), 16% Cremophor EL in water
[2] = rat, conditions similar to Example 2 (similar dose and route of administration)

SMILES: CC(C)c1cc(C(O)C(F)(F)F)cc(C(C)C)c1O (stereo not drawn) [Compound 1, 2,6-diisopropyl-4-(2,2,2-trifluoro-1-hydroxy-ethyl)-phenol]
- direct activation of GABA receptors (GABA receptors): capable of direct activation of GABA receptors
- time post-injection at which the rat appeared normal (rats; [1]): about 7.5 minutes
- total time of loss of righting reflex (rats; [1]): about 3.5 minutes
- total time of loss of righting reflex (rats; Rat 2 (agitated prior to injection), approximately 15 mg/kg i.v. (lateral tail vein), 16% Cremophor EL in water): about 2.0 minutes
- duration of anesthesia (rats; rats, about 15 mg/kg i.v.): 2 to 3 min
- tremors, agitation or excitement on injection (rats; rats, about 15 mg/kg i.v.): without tremors, agitation or excitement
- overall anesthetic activity (rats; rats, i.v.): potent short-acting i.v. anesthetic

SMILES: CC(C)c1cc(C(=O)C(F)(F)F)cc(C(C)C)c1O [Compound 2, 2,2,2-trifluoro-1-(4-hydroxy-3,5-diisopropyl-phenyl)-ethanone]
- induction of anesthesia (rats; [2]): did not appear to induce anesthesia
- tremors and shaking upon i.v. injection (rats; [2]): caused tremors and shaking

Reference: patent US7951979B2, “2,4,6-trisubstituted phenols having anesthetic properties” (University of Iowa Research Foundation, priority 2006, dated 2011)
